What all share (assay type): physicochemical
A short description of data set [1]: Second order reaction rate constant of CAP compound with GSH (UV-Vis kinetics). As to the method:
(§1) In a typical experiment, an aliquot of the stock solution of CAP1-a in water was added to nucleophile in PIPES buffer or water. The progress of the reaction was monitored by UV-Vis spectrometer at suitable wavelength. The pseudo first order reaction rate constant was determined by plotting the ln value of the concentration of CAP1-a against the reaction time. The pseudo first order reaction rate constant thus obtained was plotted against the concentration of the nucleophile. The slope of this linear correlation is the second order reaction rate constant. CAP1-a was reacted separately with GSH, cysteine, N-acetylcysteine, and phenol.
Following the study above, compounds CAP1-F, CAP2, and CAP4 each were reacted with either GSH or phenol in water or 50 mM PIPES at pH 7.
In another study, compounds CAP1-b, CAP1-F, CAP2, CAP3, CAP4, and CAP5 each were reacted with either GSH in a 50 mM PIPES and 150 mM KCl aqueous solution at pH 7 and 25° C. […] The reaction between CAP5 and GSH has a k2 as high as 3.2×10^5 M^−1·S^−1, 7×10^9 folds faster than its reaction with water under the same conditions. […] S^−1.

Data set [2] can be described thus: Second order reaction rate constant of CAP compound with cysteine (UV-Vis kinetics). To be noted: similar reaction conditions (25° C., pH 7, 50 mM PIPES). As to the method:
as §1

The nature of data set [3]: Reaction of CAP compound with water (hydrolysis rate, stability in water). As to the method:
as §1
On the other hand, the reaction between CAP4 and water is very slow, showing a k2 of only 4.8−10^−6 M^−1·S^−1 at 25° C. and pH 7 in 50 mM PIPES.

Data set [4] is described as follows: Stability in D2O observed by 1H NMR. To be noted: r.t. The text has this:
1H NMR (400 MHz, D2O) δ 8.08−7.98 (m, 2H), δ 7.92−7.85 (m, 2H), 4.41 (s, 6H), 3.75 (s, 3H).

[5] abbreviates: 50 mM PIPES and 150 mM KCl aqueous solution, pH 7, 25° C.

Regarding `C[n+]1ccccc1F.[I-]` [CAP1-a, N-methyl-2-fluoropyridinium iodide], the “second order reaction rate constant (k2), reaction with GSH” value in data set [1] (25° C., pH 7, 50 mM PIPES) is recorded as 1.2×10^2 M^−1·S^−1. For the same compound, the “second order reaction rate constant (k2), reaction with cysteine” value in data set [2] is 2.8×10^2 M^−1·S^−1. The “second order reaction rate constant (k2), reaction with water” value in data set [3] (CAP1-a and water) was 4.5×10^−6 M^−1 S^−1. In addition, the “stability in water (in words)” value in data set [3] (inferred from slow reaction with water) was “high stability”.

Turning to `C[n+]1ccccc1F` [CAP1-b, N-methyl-2-fluoropyridinium tetrafluoroborate], the “second order reaction rate constant (k2), reaction with GSH” value in data set [1] (setting [5]) is given as 1.2×10^2 M^−1·S^−1. On to `C[n+]1ccc(S(C)(=O)=O)cc1` [CAP3, N-Methyl-4-(methylsulfonyl)pyridinium tetrafluoroborate], for which the “second order reaction rate constant (k2), reaction with GSH” value in data set [1] (setting [5]) is given as 9.8×10^3 M^−1·S^−1. With `C[n+]1ccccc1S(C)(=O)=O` [CAP4, N-methyl-2-(methylsulfonyl)pyridinium tetrafluoroborate], the “second order reaction rate constant (k2), reaction with GSH” value is 1.2×10^5 M^−1·S^−1 in data set [1] (setting [5]) and 5.3×10^4 M^−1·S^−1 in data set [1] (25° C., pH 7, 50 mM PIPES). For the compound `C[n+]1c(Cl)cccc1S(C)(=O)=O` [CAP5, 2-Chloro-1-methyl-6-(methylsulfonyl)pyridin-1-ium tetrafluoroborate], the “second order reaction rate constant (k2), reaction with GSH” value in data set [1] (setting [5]) is listed as 3.2×10^5 M^−1·S^−1. Consider `Cn1c(S(C)(=O)=O)[n+](C)c2ccccc21` [CAP23, 1,3-dimethyl-2-(methylsulfonyl)-1H-benzo[d]imidazol-3-ium tetrafluoroborate], for which, in data set [4], the “stability in D2O” value is on record as “moderate stability” and the “time after which the compound is completely hydrolyzed in D2O” value was 12 h.

The values are drawn from patent US12564636B2, “Pnictogen-containing heterocyclic compounds and their use” (University of Rhode Island Board of Trustees, priority 2022, dated 2026).
